Legend:
[1] = test system: allodynia induced by sulprostone; assay: Mouse sulprostone model of allodynia; format: in vivo; settings: up to 1 mg/kg, 15 min before sulprostone 300 ng/kg IP, FIG. 3
Procedure: In this alternative model of chronic pain, allodynia can be induced in mice through intraperitoneal treatment of the animals with 300 ng/kg sulprostone (prostaglandin E2 receptor agonist) in 50% DMSO and in a volume of 5 μl. In this model, the pain response to stroking the flank with a paint brush is scored 8 times over a 35 minute period starting 15 minutes following spinal administration of sulprostone. Minami et al., 57 Pain 217-223 (1994), hereby incorporated by reference herein. Sulprostone treatment alone elicits a score of 12-13 on a 16-point scale.
In either model, the compounds are formulated in d-H2O and given in a volume of 1 ml/kg body weight for intraperitoneal (IP) dosing.
Six mice per group are rendered allodynic by injection of one of the following agents: 300 ng/kg sulprostone in DMSO IP, 100 ng/kg phenylephrine (PE) in dH2O IP, or 100 ng NMDA in DMSO intrathecally (IT). Fifteen minutes before administration of the allodynia-inducing agents, the experimental mice are given 1 mg/kg NB-DNJ. Thirty (30) minutes following administration of NB-DNJ, the allodynic response is monitored as described by brushing the flank of each mouse with a paint brush.
Five to six mice per group are rendered allodynic by injection of 300 ng/kg sulprostone IP. Fifteen minutes before inducement of an allodynic response, experimental mice are given one of the following: 1 mg/kg, 300 μg/kg, and 100 μg/kg NB-DNJ; 1 mg/kg N-butyldeoxymannojirimycin; 1 mg/kg N-5-carboxy-1-deoxynojirimycin; 1 mg/kg N-dodecyldeoxynojirimycin; 1 mg/kg N-ethyl-1-deoxynojirimycin; 1 mg/kg, 300 μg/kg, and 30 μg/kg D-glucaro-delta-lactam; 1 mg/kg 4-O-a-D-glucopyranosylmoranoline; 1 mg/kg nojirimycin bisulfite; 1 mg/kg nojirimycin-1-sulfonic acid; 1 mg/kg N-(n-nonyl)deoxynojirimycin; 1 mg/kg N(7-oxadecyl)deoxynojirimycin; and 1 mg/kg N-(7-oxa-9,9,9-trifluorononyl)deoxynojirimycin. The DMSO vehicle and sulprostone alone are used as controls.
Starting thirty (30) minutes following administration of NB-DNJ, the allodynic response of each mouse was monitored by brushing the flank of the mouse with a paint brush.
Five to six mice per group are rendered allodynic by injection of one of the following: 300 ng/kg sulprostone IP, 100 ng/kg phenylephrine (PE) IP, or 100 ng NMDA intrathecally (IT). Fifteen minutes prior to the induction of allodynia, the mice are given D-glucaro-delta-lactam IP at […], or 1 mg/kg. PE or NMDA-treated mice are given 1 mg/kg D-glucaro-delta-lactam IP.

[2] = test system: chronic pain; assay: Mouse and rat models of chronic pain (summary statement); format: in vivo
[3] = test system: primary rat brain cortical neurons treated with NMDA plus D-serine; assay: NMDA/serine-induced excitotoxicity in primary cortical neurons (LDH release); format: cell-based; settings: NMDA/serine-treated cells, 3 h or 16 h preincubation; FIGS. 10A and 10B
Procedure: (§1) Primary rat brain cortical neurons were cultured as follows. In brief, rat cerebral cortices were removed from brains of the 16 day-old-fetal rats. The neocortices were gently triturated and plated on 24 well plates (300,000 viable cells/cm2) in plating Modified Eagle's Medium (MEM) supplemented with 10% horse serum, 10% fetal calf serum and 2 mM L-glutamine. Cultures were maintained at 37 C in a humidified 5% CO2 atmosphere.
After 4 days' growth (DIV 4), half of the medium was replaced by a medium identical to the plating medium but lacking calf serum. At DIV4, 10 μM 5-fluoro-2-deoxyuridine was included to each well to halt overgrowth of glia. Mixed cultures of neurons and glia were then fed at DIV7 and DIV11 with MEM plus 5% horse serum previously conditioned by growth with cortical astrocytes for 24 h. […]
Under the experimental conditions used, i.e. after 6 hours addition of excitotoxic agent, 40% toxicity is generally observed and measured by determination of the amount of lactate dehydrogenase (LDH) released into the medium following membrane degradation. […] Overall cell injury was assessed microscopically under phase-contrast optics or by measuring amount of LDH released into the bathing medium 24 hr after neurotoxic insults (see, e.g., Koh and Choi, J. NEUROSCI. METHODS 20: 83-90, 1987), hereby incorporated by reference herein. […]

[4] = test system: primary rat brain cortical neurons treated with kainate; assay: Kainate-induced excitotoxicity in primary cortical neurons (LDH release); format: cell-based; settings: cortical cell cultures; FIGS. 9A, 9B and 9C
Procedure: as §1
After 4 days' growth (DIV 4), half of the medium was replaced by a medium identical to the plating medium but lacking calf serum. At DIV4, 10 μM 5-fluoro-2-deoxyuridine was included to each well to halt overgrowth of glia. Mixed cultures of neurons and glia were then fed at DIV7 and DIV11 with MEM plus 5% horse serum previously conditioned by growth with cortical astrocytes for 24 h.
Excitotoxicity was induced in these cells by addition of 50 μM kainate or 20 μM N-methyl-D-aspartate plus 10 μM D-serine to each well.
Under the experimental conditions used, i.e. after 6 hours addition of excitotoxic agent, 40% toxicity is generally observed and measured by determination of the amount of lactate dehydrogenase (LDH) released into the medium following membrane degradation. Such assay methods are well-known; a kit for conducting a homogeneous form of the LDH assay format is sold by Promega under the name CytoTox ONE® Homogenous Membrane Integrity Assay. Overall cell injury was assessed microscopically under phase-contrast optics or by measuring amount of LDH released into the bathing medium 24 hr after neurotoxic insults (see, e.g., Koh and Choi, J. NEUROSCI. METHODS 20: 83-90, 1987), hereby incorporated by reference herein.
[…] The final results are normalized optical density (OD) values (treated cells/untreated control cells), where a value of 1 represents 100% neuronal survival and a value of 0.6 represents 60% survival.

[5] = test system: allodynia induced by N-methyl-D-aspartate (NMDA); assay: Mouse NMDA model of allodynia; format: in vivo; settings: 3 mg/kg, 15 min before 200 ng NMDA IT, FIG. 2
Procedure: In variants of this model, allodynia can be induced using 100 ng N-methyl-D-aspartate (NMDA) in DMSO intrathecally, or IP phenylephrine (PE) 100 ng/kg formulated in dH2O. In either model, the compounds are formulated in d-H2O and given in a volume of 1 ml/kg body weight for intraperitoneal (IP) dosing. Six mice per group are rendered allodynic by injection of one of the following agents: 300 ng/kg sulprostone in DMSO IP, 100 ng/kg phenylephrine (PE) in dH2O IP, or 100 ng NMDA in DMSO intrathecally (IT). Fifteen minutes before administration of the allodynia-inducing agents, the experimental mice are given 1 mg/kg NB-DNJ. Thirty (30) minutes following administration of NB-DNJ, the allodynic response is monitored as described by brushing the flank of each mouse with a paint brush. Six mice per group are given one of the following: given 100 μg/kg NB-DNJ, 300 μg/kg NB-DNJ, 1 mg/kg NB-DNJ, or 3 mg/kg 1-deoxynojirimycin. After 15 minutes the mice are rendered allodynic by injection of 200 ng NMDA in DMSO IT. Starting thirty (30) minutes following administration of NB-DNJ, the allodynic response of each mouse is monitored by brushing the flank of the mouse with a paint brush. Five to six mice per group are rendered allodynic by injection of one of the following: 300 ng/kg sulprostone IP, 100 ng/kg phenylephrine (PE) IP, or 100 ng NMDA intrathecally (IT). Fifteen minutes prior to the induction of allodynia, the mice are given D-glucaro-delta-lactam IP at […], or 1 mg/kg. PE or NMDA-treated mice are given 1 mg/kg D-glucaro-delta-lactam IP.

CCN1C[C@H](O)[C@@H](O)[C@H](O)[C@H]1CO [N-ethyldeoxynojirimycin, N-ethyl-1-deoxynojirimycin]
attenuation of the allodynic response (analgesic activity) [1]: attenuate the allodynic response

CCCCN1C[C@H](O)[C@@H](O)[C@@H](O)[C@H]1CO [NB-DGJ, N-butyldeoxygalactonojirimycin]
activity in models of chronic pain [2]: not to be active

OC[C@H]1NC[C@H](O)[C@@H](O)[C@@H]1O [DNJ, 1-deoxynojirimycin]
neuroprotective effect [3]: no neuroprotective effect
protection against kainate induced toxicity [4]: about 50%
analgesic activity [5]: not analgesic

From patent publication US7884115B2, “Methods and compositions for the treatment of pain and other neurological conditions” (Allergan, Inc., priority 2004, dated 2011)
